Counter-ions that a name gives are not always drawn. Like-named read-outs stand apart in the source and are kept apart here.

Common to all, as to assay: AK assay 384-well format, Prestwick library screening
The test system of one assay is E. faecium. Type of assay: cell-based, Enterococcus faecium. The settings on record: 50 μM final drug concentration; for fold induction at 50 µM: Enterococcus faecium, 3 h.
Assay [1] has as its system S. aureus strain USA300-0114. Type of assay: cell-based, Staphylococcus aureus. The settings on record: 50 μM final drug concentration; for fold induction at 50 µM: Staphylococcus aureus, USA300, 3 h.
The subject of a further assay is K. pneumoniae. It counts as cell-based, Klebsiella pneumoniae. The settings on record: 50 μM final drug concentration; for fold induction at 50 µM: Klebsiella pneumoniae, 3 h.
The test system of assay [2] is A. baumannii strain 98-37-09. It counts as cell-based, Acinetobacter baumannii. The settings on record: 50 μM final drug concentration; for fold induction at 50 µM: Acinetobacter baumannii, 983709, 3 h.
For another assay, the system named is P. aeruginosa. It counts as cell-based, Pseudomonas aeruginosa. The settings on record: 50 μM final drug concentration; for fold induction at 50 µM: Pseudomonas aeruginosa, 3 h.
The subject of another assay is E. cloacae. It counts as cell-based, Enterobacter cloacae. The settings on record: 50 μM final drug concentration; for fold induction at 50 µM: Enterobacter cloacae, 3 h.
A further assay concerns E. coli. It counts as cell-based, Escherichia coli. The settings on record: 50 μM final drug concentration; for fold induction at 50 µM: Escherichia coli, 3 h.
The mark [3] stands for this setting: 384-well format, cutoff for positive-scoring molecules 3-fold increase.

For the compound `C1CCC(C(CC2CCCCN2)C2CCCCC2)CC1` (centres unmarked) [Perhexiline maleate], the fold induction at 50 µM worked out at 1.2 with E. faecium (planktonic E. faecium, 384-well, […], read-out: AK-based Prestwick Library Screening Results: E. faecium (increase in extracellular AK activity)); 0.8 in assay [1] (planktonic S. aureus, 384-well, […], read-out: AK-based Prestwick Library Screening Results: S. aureus (increase in extracellular AK activity)); 1.6 with K. pneumoniae (planktonic K. pneumoniae, 384-well, […], read-out: AK-based Prestwick Library Screening Results: K. pneumoniae (increase in extracellular AK activity)); 3.4 in assay [2] (planktonic A. baumannii, 384-well, […], read-out: AK-based Prestwick Library Screening Results: A. baumannii (increase in extracellular AK activity)); 1.4 in the assay on P. aeruginosa (planktonic P. aeruginosa, 384-well, […], read-out: AK-based Prestwick Library Screening Results: P. aeruginosa (increase in extracellular AK activity)); 1.5 with E. cloacae (planktonic E. cloacae, 384-well, […], read-out: AK-based Prestwick Library Screening Results: E. cloacae (increase in extracellular AK activity)). For the same compound, the fold induction at 50 µM with E. coli (planktonic E. coli, 384-well, […], read-out: AK-based Prestwick Library Screening Results: E. coli (increase in extracellular AK activity)) came to 1.8.

`Cl.O=c1[nH]oc2c1CCNC2` [THIP Hydrochloride]: in the assay on E. faecium ([…]), the “AK-based Prestwick Library Screening Results, E. faecium (fold increase in extracellular AK activity)” value was determined as 1.0. Further, the “AK-based Prestwick Library Screening Results, S. aureus (fold increase in extracellular AK activity)” value in assay [1] ([…]) is listed as 0.6. In addition, the “AK-based Prestwick Library Screening Results, K. pneumoniae (fold increase in extracellular AK activity)” value in the assay on K. pneumoniae ([…]) is on record as 0.6. The “AK-based Prestwick Library Screening Results, A. baumannii (fold increase in extracellular AK activity)” value in assay [2] ([…]) was determined as 0.6. For the same compound, in the assay on P. aeruginosa ([…]), the “AK-based Prestwick Library Screening Results, P. aeruginosa (fold increase in extracellular AK activity)” value is listed as 0.6. The “AK-based Prestwick Library Screening Results, E. cloacae (fold increase in extracellular AK activity)” value in the assay with E. cloacae ([…]) amounted to 0.8. The “AK-based Prestwick Library Screening Results, E. coli (fold increase in extracellular AK activity)” value in the assay on E. coli ([…]) is listed as 0.6.

As for `CC(C)NC[C@@H](O)COc1cccc2ccccc12.Cl` [(R)-Propranolol hydrochloride], the “AK-based Prestwick library screening result, E. faecium (fold increase in extracellular AK activity)” value in the assay with E. faecium (planktonic E. faecium, positive cutoff 3-fold increase) is on record as 0.9. In addition, the “AK-based Prestwick library screening result, S. aureus (fold increase in extracellular AK activity)” value in assay [1] (planktonic S. aureus, positive cutoff 3-fold increase) is 0.8. In addition, the “AK-based Prestwick library screening result, K. pneumoniae (fold increase in extracellular AK activity)” value in the assay on K. pneumoniae (planktonic K. pneumoniae, positive cutoff 3-fold increase) came to 0.7. Moreover, the “AK-based Prestwick library screening result, A. baumannii (fold increase in extracellular AK activity)” value in assay [2] (planktonic A. baumannii, positive cutoff 3-fold increase) stood at 0.9. Moreover, in the assay with P. aeruginosa (planktonic P. aeruginosa, positive cutoff 3-fold increase), the “AK-based Prestwick library screening result, P. aeruginosa (fold increase in extracellular AK activity)” value worked out at 0.8. Besides, in the assay with E. cloacae (planktonic E. cloacae, positive cutoff 3-fold increase), the “AK-based Prestwick library screening result, E. cloacae (fold increase in extracellular AK activity)” value is on record as 17.3. Further, the “AK-based Prestwick library screening result, E. coli (fold increase in extracellular AK activity)” value in the assay with E. coli (planktonic E. coli, positive cutoff 3-fold increase) turned out to be 0.8.

As to `COc1ccc(C(=O)c2ccccc2O)c(O)c1` [Dioxybenzone], the fold induction at 50 µM in the assay on E. faecium (planktonic, cutoff for positive-scoring molecules 3-fold increase, read-out: AK-based Prestwick Library Screening Results, E. faecium (fold increase in extracellular AK activity)) came to 0.8; in assay [1] (planktonic, cutoff for positive-scoring molecules 3-fold increase, read-out: AK-based Prestwick Library Screening Results, S. aureus (fold increase in extracellular AK activity)), 0.5; in the assay with K. pneumoniae (planktonic, cutoff for positive-scoring molecules 3-fold increase, read-out: AK-based Prestwick Library Screening Results, K. pneumoniae (fold increase in extracellular AK activity)), 0.7; in assay [2] (planktonic, cutoff for positive-scoring molecules 3-fold increase, read-out: AK-based Prestwick Library Screening Results, A. baumannii (fold increase in extracellular AK activity)), 0.6; in the assay on P. aeruginosa (planktonic, cutoff for positive-scoring molecules 3-fold increase, read-out: AK-based Prestwick Library Screening Results, P. aeruginosa (fold increase in extracellular AK activity)) it was 0.7; in the assay with E. cloacae (planktonic, cutoff for positive-scoring molecules 3-fold increase, read-out: AK-based Prestwick Library Screening Results, E. cloacae (fold increase in extracellular AK activity)), 1. For the same compound, the fold induction at 50 µM with E. coli (planktonic, cutoff for positive-scoring molecules 3-fold increase, read-out: AK-based Prestwick Library Screening Results, E. coli (fold increase in extracellular AK activity)) amounted to 0.8.

On to `CC[C@@]1(O)C(=O)OCc2c1cc1n(c2=O)Cc2cc3ccccc3nc2-1` [Camptothecine (S,+)], for which the “AK-based Prestwick Library Screening Results, E. faecium (increase in extracellular AK activity)” value in the assay on E. faecium (setting [3]) stood at 0.9. The “AK-based Prestwick Library Screening Results, S. aureus (increase in extracellular AK activity)” value in assay [1] (setting [3]) is reported as 0.7. For the same compound, the “AK-based Prestwick Library Screening Results, K. pneumoniae (increase in extracellular AK activity)” value in the assay with K. pneumoniae (setting [3]) came to 0.8. The “AK-based Prestwick Library Screening Results, A. baumannii (increase in extracellular AK activity)” value in assay [2] (setting [3]) is recorded as 0.8. In addition, the “AK-based Prestwick Library Screening Results, P. aeruginosa (increase in extracellular AK activity)” value in the assay on P. aeruginosa (setting [3]) was 0.8. Moreover, in the assay on E. cloacae (setting [3]), the “AK-based Prestwick Library Screening Results, E. cloacae (increase in extracellular AK activity)” value is reported as 1.1. The “AK-based Prestwick Library Screening Results, E. coli (increase in extracellular AK activity)” value in the assay with E. coli (setting [3]) stood at 0.9.

For `Nc1ccn([C@H]2CC[C@@H](CO)O2)c(=O)n1` [Zalcitabine], the fold induction at 50 µM in the assay on E. faecium (planktonic E. faecium, positive cutoff 3-fold increase, read-out: AK-based Prestwick library screening result, E. faecium (fold increase in extracellular AK activity)) was 1.1; in assay [1] (planktonic S. aureus, positive cutoff 3-fold increase, read-out: AK-based Prestwick library screening result, S. aureus (fold increase in extracellular AK activity)), 1.1; in the assay with K. pneumoniae (planktonic K. pneumoniae, positive cutoff 3-fold increase, read-out: AK-based Prestwick library screening result, K. pneumoniae (fold increase in extracellular AK activity)) it was 1.1; in assay [2] (planktonic A. baumannii, positive cutoff 3-fold increase, read-out: AK-based Prestwick library screening result, A. baumannii (fold increase in extracellular AK activity)), 1.2; in the assay with P. aeruginosa (planktonic P. aeruginosa, positive cutoff 3-fold increase, read-out: AK-based Prestwick library screening result, P. aeruginosa (fold increase in extracellular AK activity)), 1; in the assay with E. cloacae (planktonic E. cloacae, positive cutoff 3-fold increase, read-out: AK-based Prestwick library screening result, E. cloacae (fold increase in extracellular AK activity)), 1.8. For the same compound, the fold induction at 50 µM with E. coli (planktonic E. coli, positive cutoff 3-fold increase, read-out: AK-based Prestwick library screening result, E. coli (fold increase in extracellular AK activity)) amounted to 1.3.

Turning to `OC(c1cc(C(F)(F)F)nc2c(C(F)(F)F)cccc12)C1CCCCN1` (centres unmarked) [Mefloquine hydrochloride], the fold induction at 50 µM was 1 in the assay on E. faecium (384-well format, cutoff for positive-scoring molecules 3-fold increase, read-out: AK-based Prestwick Library Screening Results, E. faecium (increase in extracellular AK activity)); 3.2 in assay [1] (384-well format, cutoff for positive-scoring molecules 3-fold increase, read-out: AK-based Prestwick Library Screening Results, S. aureus (increase in extracellular AK activity)); 1.3 in the assay with K. pneumoniae (384-well format, cutoff for positive-scoring molecules 3-fold increase, read-out: AK-based Prestwick Library Screening Results, K. pneumoniae (increase in extracellular AK activity)); 2.6 in assay [2] (384-well format, cutoff for positive-scoring molecules 3-fold increase, read-out: AK-based Prestwick Library Screening Results, A. baumannii (increase in extracellular AK activity)); 1.1 in the assay with P. aeruginosa (384-well format, cutoff for positive-scoring molecules 3-fold increase, read-out: AK-based Prestwick Library Screening Results, P. aeruginosa (increase in extracellular AK activity)); 1.2 with E. cloacae (384-well format, cutoff for positive-scoring molecules 3-fold increase, read-out: AK-based Prestwick Library Screening Results, E. cloacae (increase in extracellular AK activity)). For the same compound, in the assay with E. coli (384-well format, cutoff for positive-scoring molecules 3-fold increase, read-out: AK-based Prestwick Library Screening Results, E. coli (increase in extracellular AK activity)), the fold induction at 50 µM is 1.3.

As for `Cc1c(NC(=O)c2cccnc2)c(=O)n(-c2ccccc2)n1C` [Nifenazone], the fold induction at 50 µM with E. faecium (planktonic E. faecium, 384-well, cutoff for positive-scoring molecules 3-fold increase, read-out: AK-based Prestwick Library Screening Results: E. faecium (increase in extracellular AK activity)) is 1; in assay [1] (planktonic S. aureus, 384-well, cutoff for positive-scoring molecules 3-fold increase, read-out: AK-based Prestwick Library Screening Results: S. aureus (increase in extracellular AK activity)), 1.3; with K. pneumoniae (planktonic K. pneumoniae, 384-well, cutoff for positive-scoring molecules 3-fold increase, read-out: AK-based Prestwick Library Screening Results: K. pneumoniae (increase in extracellular AK activity)), 1; in assay [2] (planktonic A. baumannii, 384-well, cutoff for positive-scoring molecules 3-fold increase, read-out: AK-based Prestwick Library Screening Results: A. baumannii (increase in extracellular AK activity)), 1.6; with P. aeruginosa (planktonic P. aeruginosa, 384-well, cutoff for positive-scoring molecules 3-fold increase, read-out: AK-based Prestwick Library Screening Results: P. aeruginosa (increase in extracellular AK activity)), 1.2; in the assay on E. cloacae (planktonic E. cloacae, 384-well, cutoff for positive-scoring molecules 3-fold increase, read-out: AK-based Prestwick Library Screening Results: E. cloacae (increase in extracellular AK activity)), 1.2. For the same compound, in the assay with E. coli (planktonic E. coli, 384-well, cutoff for positive-scoring molecules 3-fold increase, read-out: AK-based Prestwick Library Screening Results: E. coli (increase in extracellular AK activity)), the fold induction at 50 µM stood at 1.2.

These data come from patent US10004701B2, “Methods and compositions for treating infection” (UNIVERSITY OF ROCHESTER, priority 2012, dated 2018).
